Ends that are not written are not given here. PEG = not defined here
Columns and labels:
Assay type in all cases: cell-based
[1] = test system: human non-small cell lung cancer cells (A549); assay: scratch assay, migration of A549 cells; settings: A549, 10 μM, 48 hours; control group 75.31 ± 8.19
Description: (§1) In the scratch assay, the cell migration rate was negatively correlated with the inhibitory effect of the drug component on tumor cell migration ability. The cell migration inhibition experiment was described as follows: tumor cells were cultured in vitro, cells in logarithmic growth phase were collected and seeded evenly in a 24-well plate at a density of 1-2×10^5 cells/well; the cells were cultured in a cell incubator until a monolayer was formed; a scratch tool was used to make a “-” (straight) scratch on the monolayer of cells; the cells were washed 1-3 times with PBS, and a medium (with 2% fetal bovine serum) containing specific test components was added to the culture. Experimental grouping: PBS control group; polypeptide or derivative thereof treatment group (N1-N54), 10 μM. Three independent parallel wells were set up in each group, and the cells were cultured continuously in a cell incubator for 48 hours. […] At least 3 representative images for each well were taken. ImageJ software was used to count the migration distance of the cells, and the cell migration rate was calculated as: cell migration rate (%)=(width of original scratch−width of current scratch)/width of original scratch×100.
This example was a scratch assay to evaluate the inhibitory effect of the polypeptide or derivative thereof (N1-N54) on the migration ability of human non-small cell lung cancer (A549). The experimental method was as described in Example 2.

[2] = test system: human lung cancer cells (95D); assay: scratch assay, migration of 95D cells; settings: 10 μM, 48 hours, control group 55.3 ± 3.19
Description: as §1
This example was a scratch assay to evaluate the inhibitory effect of the polypeptide or derivative thereof (N1-N54) on the migration ability of human lung cancer cells (95D). The experimental method was as described in Example 2.

[3] = test system: human lung squamous carcinoma cells (NCI-H226); assay: scratch assay, migration of NCI-H226 cells; settings: NCI-H226, 10 μM, 48 hours; control group 65.31 ± 3.19
Description: as §1
This example was a scratch assay to evaluate the inhibitory effect of the polypeptide or derivative thereof (N1-N54) on the migration ability of human lung squamous carcinoma cells (NCI-H226). The experimental method was as described in Example 2.

[4] = test system: human pancreatic cancer cells (PANC-1); assay: scratch assay, migration of PANC-1 cells; settings: PANC-1, 10 μM, 48 hours; control group 66.65 ± 3.37
Description: as §1
This example was a scratch assay to evaluate the inhibitory effect of the polypeptide or derivative thereof (N1-N54) on the migration ability of human pancreatic cancer cells (PANC-1). The experimental method was as described in Example 2.

[5] = test system: human liver cancer cells (HepG2); assay: scratch assay, migration of HepG2 cells; settings: HepG2, 10 μM, 48 hours; control group 71.01 ± 6.63
Description: as §1
This example was a scratch assay to evaluate the inhibitory effect of the polypeptide or derivative thereof (N1-N54) on the migration ability of human liver cancer cells (HepG2). The experimental method was as described in Example 2.

[6] = test system: human breast cancer cells (MDA-MB-453); assay: scratch assay, migration of MDA-MB-453 cells; settings: MDA-MB-453, 10 μM, 48 hours; control group 32.42 ± 2.04
Description: as §1
This example was a scratch assay to evaluate the inhibitory effect of the polypeptide or derivative thereof (N1-N54) on the migration ability of human breast cancer cells (MDA-MB-453). The experimental method was as described in Example 2.

[7] = test system: human breast cancer cells (MDA-MB-231); assay: scratch assay, migration of MDA-MB-231 cells; settings: MDA-MB-231, 10 μM, 48 hours; control group 36.19 ± 5.15
Description: as §1
This example was a scratch assay to evaluate the inhibitory effect of the polypeptide or derivative thereof (N1-N54) on the migration ability of human breast cancer cells (MDA-MB-231). The experimental method was as described in Example 2.

[8] = test system: human breast cancer cells (MCF-7); assay: scratch assay, migration of MCF-7 cells; settings: MCF-7, 10 μM, 48 hours; control group 30.97 ± 1.79
Description: as §1
This example was a scratch assay to evaluate the inhibitory effect of the polypeptide or derivative thereof (N1-N54) on the migration ability of human breast cancer cells (MCF-7). The experimental method was as described in Example 2.

[9] = test system: human melanoma cells (A375); assay: scratch assay, migration of A375 cells; settings: A375, 10 μM, 48 hours; control group 44.03 ± 6.21
Description: as §1
This example was a scratch assay to evaluate the inhibitory effect of the polypeptide or derivative thereof (N1-N54) on the migration ability of human melanoma cells (A375). The experimental method was as described in Example 2.

[10] = test system: human oral epidermoid carcinoma KB cells; assay: scratch assay, migration of KB cells; settings: 10 μM, 48 hours, control group 54.03 ± 4.21
Description: as §1
This example was a scratch assay to evaluate the inhibitory effect of the polypeptide or derivative thereof (N1-N54) on the migration ability of human oral epidermoid carcinoma cells (KB). The experimental method was as described in Example 2.

[11] = test system: human pharyngeal squamous-cell carcinoma cells (Fadu); assay: scratch assay, migration of Fadu cells; settings: 10 μM, 48 hours, control group 28.76 ± 4.08
Description: as §1
This example was a scratch assay to evaluate the inhibitory effect of the polypeptide or derivative thereof (N1-N54) on the migration ability of human pharyngeal squamous-cell carcinoma cells (Fadu). The experimental method was as described in Example 2.

[12] = test system: human colon cancer cells (HCT-116); assay: scratch assay, migration of HCT-116 cells; settings: HCT-116, 10 μM, 48 hours; control group 47.78 ± 6.07
Description: as §1
This example was a scratch assay to evaluate the inhibitory effect of the polypeptide or derivative thereof (N1-N54) on the migration ability of human colon cancer cells (HCT-116). The experimental method was as described in Example 2.

[13] = test system: human thyroid cancer cells (FRO); assay: scratch assay, migration of FRO cells; settings: 10 μM, 48 hours, control group 60.34 ± 8.32
Description: as §1
This example was a scratch assay to evaluate the inhibitory effect of the polypeptide or derivative thereof (N1-N54) on the migration ability of human thyroid cancer cells (FRO). The experimental method was as described in Example 2.

[14] = test system: human prostate cancer cells (22RV1); assay: scratch assay, migration of 22RV1 cells; settings: 22RV1, 10 μM, 48 hours; control group 25.41 ± 5.01
Description: as §1
This example was a scratch assay to evaluate the inhibitory effect of the polypeptide or derivative thereof (N1-N54) on the migration ability of human prostate cancer cells (22RV1). The experimental method was as described in Example 2.

Substance	Migration rate (%) (mean ± SD, P) [1]	Migration rate (%) (mean ± SD, P) [2]	Migration rate (%) (mean ± SD, P) [3]	Migration rate (%) (mean ± SD, P) [4]	Migration rate (%) (mean ± SD, P) [5]	Migration rate (%) (mean ± SD, P) [6]	Migration rate (%) (mean ± SD, P) [7]	Migration rate (%) (mean ± SD, P) [8]	Migration rate (%) (mean ± SD, P) [9]	Migration rate (%) (mean ± SD, P) [10]	Migration rate (%) (mean ± SD, P) [11]	Migration rate (%) (mean ± SD, P) [12]	Migration rate (%) (mean ± SD, P) [13]	Migration rate (%) (mean ± SD, P) [14]
N37: SEQ ID NO: 1 with addition of two amino acids to the carboxyl terminal and PEG modification at the amino terminal ({PEG}-YRVRFLAKENVTQDAEDNCT; reading uncertain)	49.45 ± 10.09,* %	27.76 ± 6.51,** %	11.33 ± 9.49,*** %	18.23 ± 6.77,*** %	13.81 ± 6.14,*** %	15.13 ± 3.55,** %	20.43 ± 3.23,* %	8.64 ± 3.76,** %	14.48 ± 2.51,*** %	24.48 ± 2.51,* %	15.89 ± 3.88,* %	4.99 ± 1.68,*** %	36.47 ± 5.69,* %	4.86 ± 1.91,** %
N22: SEQ ID NO: 1 with substitution A7R, deletion of three amino acids at the amino terminal and of positions 15-18 (RFLRKENVTQD)	33.59 ± 5.62,** %	38.35 ± 5.04,** %	18.69 ± 5.25,*** %	11.44 ± 8.52,*** %	18.61 ± 8.35,*** %	8.54 ± 1.57,** %	16.94 ± 3.17,* %	8.79 ± 3.01,** %	5.12 ± 3.69,*** %	10.02 ± 2.35,*** %	15.11 ± 4.99,* %	7.78 ± 3.07,*** %	42.34 ± 4.98,* %	6.10 ± 2.72,** %
N43: SEQ ID NO: 1 with addition of one amino acid at the amino terminal, deletion of position 18, PEG at the carboxyl terminal (RYRVRFLAKENVTQDAED-{PEG}; reading uncertain)	57.74 ± 5.39,* %	30.38 ± 4.71,** %	16.38 ± 7.71,*** %	18.87 ± 6.90,*** %	26.54 ± 7.89,** %	10.38 ± 6.04,** %	12.19 ± 5.70,** %	7.83 ± 3.42,** %	11.22 ± 1.74,*** %	11.22 ± 1.74,*** %	10.04 ± 2.50,** %	4.56 ± 1.52,*** %	19.78 ± 4.60,** %	6.57 ± 1.35,** %
N9: SEQ ID NO: 1 with deletion of positions 15-18 and PEG modification at the amino terminal ({PEG}-YRVRFLAKENVTQD; reading uncertain)	56.92 ± 4.49,** %	32.27 ± 4.69,** %	35.47 ± 5.20,** %	29.12 ± 5.84,*** %	35.11 ± 5.16,** %	7.19 ± 2.38,*** %	15.96 ± 3.92,* %	5.28 ± 2.11,*** %	8.96 ± 2.46,*** %	9.27 ± 2.63,*** %	16.82 ± 3.57,* %	25.96 ± 3.84,** %	20.51 ± 5.04,** %	14.84 ± 2.96,* %

Source: patent US20220280594A1, “APPLICATION OF POLYPEPTIDE OR DERIVATIVE THEREOF” (CHENGDU HUITAI BIOMEDICINE CO., LTD., priority 2019, published 2022)
